The values below come from patent US20230310660A1, “SHELF-STABLE INDOCYANINE GREEN SOLUTIONS AND METHODS OF MAKING THE SAME” (CAO Group, Inc., priority 2020, published 2023).

The conditions of data set [1]: after mixing with water; cited from earlier work.
The nature of data set [2]: Shelf stability of indocyanine green dissolved in water-free organic solvent. The note with it: absence of water, room temperature. The data set is classed as physicochemical. The text has this:
Through experimentation, it has been determined that the biggest cause of instability within ICG solutions to be nothing other than water and the second most recognizable factor is temperature. Therefore, with the instability factors identified the present invention identifies by way of experimentation with other solutions within which ICG is stable. An embodiment of the present invention utilizes organic liquids to create shelf stable ICG solutions. The present invention is a method of creating a shelf-stable, liquid, indocyanine green solution.
More importantly, the type of organic solvent selected is not the important factor for stability—only the absence of water is required.
When creating the solution, the manufacturing method is to add the ICG to the solvent(s) and stir until it dissolves. Thereafter the solution is loading in an airtight sealed container, thereby preventing the introduction of ambient air, which may contain water vapor, into the container.

Consider `CC1(C)C(/C=C/C=C/C=C/C=C2\N(CCCCS(=O)(=O)O)c3ccc4ccccc4c3C2(C)C)=[N+](CCCCS(=O)(=O)[O-])c2ccc3ccccc3c21` [indocyanine green], for which, in data set [1], the “shelf life of ICG solutions (unstable)” value was “a few days”. Moreover, the “shelf stable (shelf life of solution)” value in data set [2] was “up to 1 year”; in data set [2] (listed as ICG), “up to one”.
